Calls of active or inactive are those of the source.
How the values were obtained:
[1] = inhibitors of PGC1a acetylation in cells, dose response, cell-based, cherry-picked samples (AID 720514); assay type: functional;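 also: potency may reflect raised or lowered acetylation signal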
[2] = target: T1, NADPH oxidase 1 (Homo sapiens, UniProt Q9Y5S8); assay type: functional, cell-based;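 also: Cell-based assay with luminescence read-out, IC50 derived from inhibitor dose-response curves; intracellular ROS from endogenous NOX1 in intact HT29 colon cancer cells; potency of inhibitors that lower the ROS luminescence signal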
T1 sequence (Q9Y5S8 whole entry): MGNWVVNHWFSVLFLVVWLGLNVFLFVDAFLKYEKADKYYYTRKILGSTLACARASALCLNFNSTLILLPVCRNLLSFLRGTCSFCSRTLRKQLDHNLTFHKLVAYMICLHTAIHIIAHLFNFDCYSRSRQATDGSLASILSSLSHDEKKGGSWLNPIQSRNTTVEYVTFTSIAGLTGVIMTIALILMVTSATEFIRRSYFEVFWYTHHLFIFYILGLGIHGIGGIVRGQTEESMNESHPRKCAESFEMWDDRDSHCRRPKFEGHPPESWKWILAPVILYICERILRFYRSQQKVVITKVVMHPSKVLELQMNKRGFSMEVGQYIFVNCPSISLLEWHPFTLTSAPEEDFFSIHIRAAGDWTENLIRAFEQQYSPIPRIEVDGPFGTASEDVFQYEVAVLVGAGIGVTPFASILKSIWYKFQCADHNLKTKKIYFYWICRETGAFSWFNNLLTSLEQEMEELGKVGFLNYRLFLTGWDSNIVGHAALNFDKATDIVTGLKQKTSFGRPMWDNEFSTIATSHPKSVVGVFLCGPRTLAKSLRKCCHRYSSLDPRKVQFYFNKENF

[3] = target: T2, Caspase-6 (Homo sapiens, UniProt P55212); assay: human caspase-6 inhibitors, dose response, biochemical, VEID-R110 fluorescence, cherry-pick (AID 720632)
T2 sequence (P55212 whole entry): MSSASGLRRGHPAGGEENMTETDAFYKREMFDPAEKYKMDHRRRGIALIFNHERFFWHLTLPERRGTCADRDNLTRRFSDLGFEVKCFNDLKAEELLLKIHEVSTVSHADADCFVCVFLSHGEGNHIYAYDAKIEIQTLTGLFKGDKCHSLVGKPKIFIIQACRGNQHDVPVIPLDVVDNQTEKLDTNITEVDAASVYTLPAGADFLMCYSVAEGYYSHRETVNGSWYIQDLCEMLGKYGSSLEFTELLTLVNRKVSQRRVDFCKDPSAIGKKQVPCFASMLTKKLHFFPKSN

[4] = target: DNA dC->dU-editing enzyme APOBEC-3G (Homo sapiens, UniProt Q9HC16); assay type: functional;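 also: Dose-response counterscreen measuring inhibition of APOBEC3G DNA deaminase activity, run while confirming APOBEC3A inhibitors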
[5] = target: DNA dC->dU-editing enzyme APOBEC-3A (Homo sapiens, UniProt P31941); assay: Dose Response confirmation of small molecule APOBEC3A DNA Deaminase Inhibitors via a fluorescence-based single-stranded DNA deaminase assay. [Related pubchem assays (depositor defined):AID493011, AID493024]; assay type: functional
[6] = target: T3, Carboxy-terminal domain RNA polymerase II polypeptide A small phosphatase 1 (Homo sapiens, UniProt Q9GZU7); assay: inhibitors of CTDSP1, concentration-response testing, biochemical assay, absorbance-based, actives from ultra-high-throughput screening (AID 540297); assay type: functional
T3 sequence (Q9GZU7 whole entry): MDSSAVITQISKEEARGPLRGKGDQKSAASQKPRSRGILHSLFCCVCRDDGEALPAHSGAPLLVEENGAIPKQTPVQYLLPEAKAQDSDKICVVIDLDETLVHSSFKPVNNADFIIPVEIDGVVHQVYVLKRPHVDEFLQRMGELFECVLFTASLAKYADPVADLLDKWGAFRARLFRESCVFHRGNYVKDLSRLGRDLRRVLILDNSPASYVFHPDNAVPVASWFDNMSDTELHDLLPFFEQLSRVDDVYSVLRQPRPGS

[7] = target: Cytochrome P450 2C19 (Homo sapiens, UniProt P33261); assay: qHTS Assay for Inhibitors and Substrates of Cytochrome P450 2C19. [Related pubchem assays: 410 ]; assay type: ADME; conditions: read-out: Potency
[8] = target: T4, Alkaline phosphatase, tissue-nonspecific isozyme (Homo sapiens, UniProt P05186)
T4 sequence (P05186 whole entry): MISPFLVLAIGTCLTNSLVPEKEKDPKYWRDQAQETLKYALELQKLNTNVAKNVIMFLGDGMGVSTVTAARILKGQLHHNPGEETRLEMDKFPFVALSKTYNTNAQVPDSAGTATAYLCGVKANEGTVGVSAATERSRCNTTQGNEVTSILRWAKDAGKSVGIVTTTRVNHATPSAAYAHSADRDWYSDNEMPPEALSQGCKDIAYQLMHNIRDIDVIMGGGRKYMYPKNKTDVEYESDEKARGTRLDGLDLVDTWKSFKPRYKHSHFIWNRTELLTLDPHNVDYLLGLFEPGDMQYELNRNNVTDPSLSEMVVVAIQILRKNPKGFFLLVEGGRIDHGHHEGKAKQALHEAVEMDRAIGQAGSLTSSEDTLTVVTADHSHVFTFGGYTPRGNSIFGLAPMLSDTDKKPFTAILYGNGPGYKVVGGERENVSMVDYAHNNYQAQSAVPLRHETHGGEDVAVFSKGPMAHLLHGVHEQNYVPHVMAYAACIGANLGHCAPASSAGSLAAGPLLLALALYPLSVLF

[9] = microbe, parasite or virus in culture; assay type: functional; conditions: Mycobacterium tuberculosis
[10] = cells; assay type: functional
[11] = A Cell Based Secondary Assay To Explore Cytotoxicity of Compounds that Sensitize Mycobacterium Tuberculosis to Beta-Lactam Antibiotics.; assay type: functional
[12] = target: T5, Mucolipin-3 (Homo sapiens, UniProt Q8TDD5); assay: Dose response cell-based high-throughput screening assay for agonists of the transient receptor potential channel ML3 (TRPML3). [Related pubchem assays: 1526, 1424, 1448 ]; assay type: functional
T5 sequence (Q8TDD5 whole entry): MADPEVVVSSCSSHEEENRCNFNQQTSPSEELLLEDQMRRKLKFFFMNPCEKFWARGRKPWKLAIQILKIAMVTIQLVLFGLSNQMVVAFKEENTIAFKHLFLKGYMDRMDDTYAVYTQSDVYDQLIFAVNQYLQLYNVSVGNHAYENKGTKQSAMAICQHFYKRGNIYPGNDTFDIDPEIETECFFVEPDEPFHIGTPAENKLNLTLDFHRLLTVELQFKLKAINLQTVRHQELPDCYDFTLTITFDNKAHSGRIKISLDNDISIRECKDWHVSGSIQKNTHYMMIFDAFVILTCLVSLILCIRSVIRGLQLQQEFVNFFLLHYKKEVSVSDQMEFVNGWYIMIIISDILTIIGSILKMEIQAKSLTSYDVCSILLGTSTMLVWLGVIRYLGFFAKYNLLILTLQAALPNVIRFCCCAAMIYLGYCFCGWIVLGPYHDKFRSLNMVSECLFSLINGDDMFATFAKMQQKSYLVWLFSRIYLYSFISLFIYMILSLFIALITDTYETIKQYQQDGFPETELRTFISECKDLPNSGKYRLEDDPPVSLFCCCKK

[13] = HepG2 cell cytotoxicity, dose response, cytotoxicity control for Shn3 inhibitor project, CellTiter-Glo, cherry-picked (AID 624134); assay type: functional, cell-based
[14] = control 3'UTR Renilla luciferase suppression, dose response, counter-screen for Shn3 inhibitor project, cell-based, Clone20-Shn3RL, cherry-picked (AID 624133); assay type: functional
[15] = target: Ion channel NompC (Danio rerio, UniProt Q7T1G6); assay: Fluorescence counterscreen assay for TRPML3 agonists: dose response cell-based high-throughput screening assay to identify agonists of the transient receptor potential channel N1 (TRPN1). [Related pubchem assays: 1526, 1424, 1448 ]; assay type: functional
Chain of Ion channel NompC (Q7T1G6 whole entry): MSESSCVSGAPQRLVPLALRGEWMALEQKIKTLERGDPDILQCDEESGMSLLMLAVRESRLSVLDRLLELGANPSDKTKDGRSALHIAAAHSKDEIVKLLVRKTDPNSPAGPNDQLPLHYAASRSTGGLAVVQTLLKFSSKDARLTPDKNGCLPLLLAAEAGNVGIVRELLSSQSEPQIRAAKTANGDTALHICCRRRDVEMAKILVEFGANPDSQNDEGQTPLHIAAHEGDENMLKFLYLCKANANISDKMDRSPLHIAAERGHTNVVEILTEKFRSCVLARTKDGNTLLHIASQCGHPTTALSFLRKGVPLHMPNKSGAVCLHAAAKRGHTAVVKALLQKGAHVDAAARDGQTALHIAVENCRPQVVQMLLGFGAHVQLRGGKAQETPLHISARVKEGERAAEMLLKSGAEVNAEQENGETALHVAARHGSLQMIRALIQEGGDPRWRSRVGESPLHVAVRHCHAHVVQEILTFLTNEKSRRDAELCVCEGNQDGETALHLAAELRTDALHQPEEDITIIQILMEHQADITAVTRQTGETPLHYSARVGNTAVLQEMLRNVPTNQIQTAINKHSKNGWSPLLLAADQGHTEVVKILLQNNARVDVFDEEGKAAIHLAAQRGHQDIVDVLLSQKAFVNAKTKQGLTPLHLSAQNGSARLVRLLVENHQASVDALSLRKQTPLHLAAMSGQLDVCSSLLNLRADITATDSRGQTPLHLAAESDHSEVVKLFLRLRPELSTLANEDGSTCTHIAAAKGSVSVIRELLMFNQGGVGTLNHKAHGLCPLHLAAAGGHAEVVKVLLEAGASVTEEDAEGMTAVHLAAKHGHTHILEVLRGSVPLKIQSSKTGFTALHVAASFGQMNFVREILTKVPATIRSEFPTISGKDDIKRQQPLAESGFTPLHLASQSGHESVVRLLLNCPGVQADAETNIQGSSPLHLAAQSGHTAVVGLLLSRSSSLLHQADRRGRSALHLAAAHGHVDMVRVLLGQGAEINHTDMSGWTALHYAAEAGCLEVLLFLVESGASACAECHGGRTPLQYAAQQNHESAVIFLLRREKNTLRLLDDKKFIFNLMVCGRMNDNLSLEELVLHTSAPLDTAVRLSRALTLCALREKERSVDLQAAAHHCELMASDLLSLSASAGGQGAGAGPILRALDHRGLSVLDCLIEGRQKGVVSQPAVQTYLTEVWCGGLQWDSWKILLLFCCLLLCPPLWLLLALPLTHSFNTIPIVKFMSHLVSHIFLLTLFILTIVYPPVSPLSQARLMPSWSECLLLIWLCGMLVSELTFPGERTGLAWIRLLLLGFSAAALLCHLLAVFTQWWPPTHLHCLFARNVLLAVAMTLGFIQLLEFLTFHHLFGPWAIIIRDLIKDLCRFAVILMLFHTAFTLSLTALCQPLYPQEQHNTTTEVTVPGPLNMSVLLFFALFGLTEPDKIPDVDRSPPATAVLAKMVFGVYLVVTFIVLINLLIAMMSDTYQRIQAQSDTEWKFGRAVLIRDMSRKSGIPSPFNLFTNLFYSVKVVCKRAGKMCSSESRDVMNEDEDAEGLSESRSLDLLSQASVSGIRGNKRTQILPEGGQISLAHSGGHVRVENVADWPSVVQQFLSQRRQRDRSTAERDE

Chain of Cytochrome P450 2C19 (P33261 whole entry): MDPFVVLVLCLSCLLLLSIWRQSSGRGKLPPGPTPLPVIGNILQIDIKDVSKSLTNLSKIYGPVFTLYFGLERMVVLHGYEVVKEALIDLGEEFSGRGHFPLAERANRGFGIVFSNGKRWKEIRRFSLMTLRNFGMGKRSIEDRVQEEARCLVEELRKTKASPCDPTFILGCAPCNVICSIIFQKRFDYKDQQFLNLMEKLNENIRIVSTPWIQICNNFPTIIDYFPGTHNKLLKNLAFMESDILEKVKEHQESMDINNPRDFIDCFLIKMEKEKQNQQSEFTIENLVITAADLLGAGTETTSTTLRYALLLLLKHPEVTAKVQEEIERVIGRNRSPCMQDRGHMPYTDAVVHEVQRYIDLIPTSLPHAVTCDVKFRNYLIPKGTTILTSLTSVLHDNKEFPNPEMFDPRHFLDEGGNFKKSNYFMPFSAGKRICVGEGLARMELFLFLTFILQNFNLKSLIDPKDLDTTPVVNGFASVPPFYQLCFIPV
Chain of DNA dC->dU-editing enzyme APOBEC-3A (P31941 whole entry, the tested form may be a part): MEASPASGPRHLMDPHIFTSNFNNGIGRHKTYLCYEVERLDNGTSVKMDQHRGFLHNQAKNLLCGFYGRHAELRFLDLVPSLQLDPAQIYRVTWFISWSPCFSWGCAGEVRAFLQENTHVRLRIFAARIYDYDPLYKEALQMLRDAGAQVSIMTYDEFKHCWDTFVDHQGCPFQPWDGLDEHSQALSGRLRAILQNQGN
Chain of DNA dC->dU-editing enzyme APOBEC-3G (Q9HC16 whole entry): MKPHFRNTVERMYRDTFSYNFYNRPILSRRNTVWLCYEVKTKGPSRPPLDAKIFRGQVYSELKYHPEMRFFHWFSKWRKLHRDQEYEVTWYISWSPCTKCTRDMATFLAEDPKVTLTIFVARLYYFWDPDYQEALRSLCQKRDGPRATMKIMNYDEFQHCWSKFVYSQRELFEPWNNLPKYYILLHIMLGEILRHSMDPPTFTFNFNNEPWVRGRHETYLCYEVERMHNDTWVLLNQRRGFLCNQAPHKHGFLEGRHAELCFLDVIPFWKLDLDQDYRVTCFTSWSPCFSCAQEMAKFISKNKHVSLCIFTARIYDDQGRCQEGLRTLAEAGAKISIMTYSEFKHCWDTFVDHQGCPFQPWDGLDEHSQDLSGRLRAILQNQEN

CC(=O)N1CCN(S(=O)(=O)c2cccc(C(=O)Nc3ccc4c(c3)OCO4)c2)CC1
AC50 [1]: 25.1 µM (active)

CCN(CC(=O)NCc1ccc(Cl)cc1)C(=O)CSCC(=O)Nc1ccc(C)cc1
AC50 [1]: 5.23 µM (active)

CSc1ccc2c(c1)Nc1ccccc1S2
IC50 [2]: 0.241 µM (active)

O=P(c1ccccc1)(c1ccccc1)c1cc(S(=O)(=O)O)ccc1O
AC50 [3]: 1.78 µM (active) | IC50 [4]: 45 µM (active) | IC50 [5]: 14.3 µM (active) | IC50 [6]: 9.24 µM (active)

COC(=O)NC(c1ccccc1)C(C#N)C(=O)OC (stereo not drawn)
AC50 [7]: 3.16 µM (inconclusive)

CCCCN1C(=O)C2(NNc3ccccc3O2)c2ccccc21 (stereo not drawn)
EC50 [8]: < 0.195 µM (not active) | CC50 [9]: > 40 µM (active) | IC50 [10]: 36.5 µM (active)

CSc1ncc(Cl)c(C(=O)Nc2cccc3ccccc23)n1
CC50 [11]: > 40 µM (active)

CCOC(=O)C1CCN(C(=O)C(C)N(c2ccc(Oc3ccccc3)cc2)S(C)(=O)=O)CC1 (stereo not drawn)
EC50 [12]: 6.8 µM (active) | AC50 [13]: > 70 µM (inactive) | AC50 [14]: 9.34 µM (active) | EC50 [15]: > 29.9 µM (not active)

COc1ccc(-c2nc3ccc(C)cn3c2NCc2ccc3c(c2)OCO3)cc1
EC50 [8]: > 100 µM (not active)

CCOC(=O)c1c(NC(=O)COc2ncnc3ccccc23)sc(C)c1C
EC50 [8]: > 100 µM (not active)

Reference: ChEMBL document CHEMBL1201862, “PubChem BioAssay data set” (2004)
